{"source": "patent EP0145177A2", "about": "“Chemotherapeutic agents based on rhizoxin” (priority 1983, dated 1985)", "key": {"Leukemia L-1210 cells": {"tested_on": "Leukemia L-1210 cells", "assay": "Antitumor activity against leukemia L-1210 in mice (Test Example 2)", "format": "in vivo, CDF1 mice", "conditions": "daily for 4 days; for ILS (%): increase in life span over control", "method": "Leukemia L-1210 cells (1 x 10^5 cells) were intraperitoneally inoculated into CDF1 mice. Intraperitoneal administration of Rhizoxin was started 24 hours after the tumor inoculation and continued daily for 4 days. The result is shown in Table 2 in terms of a percentage of an increase in the life span of the treated mice over that of the control mice (ILS)."}, "rice seedling": {"tested_on": "rice seedling", "assay": "Induction of the characteristic symptoms of rice seedling blight", "format": "in vivo", "conditions": "Oryza sativa; extremely low concentration at which the action is still seen; read-out: concentration that can induce the characteristic symptoms of rice seedling blight", "method": "(§1) Rhizoxin has an action which can induce the characteristic symptoms of rice seedling blight, even at an extremely low concentration (10 ng/ml)."}, "B-16 melanoma": {"tested_on": "B-16 melanoma", "assay": "Tumor growth inhibition of B-16 melanoma in mice (Test Example 3)", "format": "in vivo, BDF1 mice", "conditions": "daily for 4 days, based on tumor weight from tumor diameter", "method": "Tumor fragments of B-16 melanoma were subcutaneously inoculated into BDF1 mice. Intraperitoneal administration of Rhizoxin was begun 24 hours after the tumor inoculation and continued daily for 4 days.\nThe-result is shown in Table 3 in terms of a percentage of tumor growth inhibition based on the tumor weight which can be obtained from the measurement of the tumor diameter."}, "leukemia P-388 cells": {"tested_on": "leukemia P-388 cells", "assay": "Antitumor activity against Vincristine sensitive leukemia P-388 in mice (Test Example 4)", "format": "in vivo, CDF1 mice", "conditions": "for ILS (%): P-388", "text": "(§2) Vincristine resistant or sensitive leukemia P-388 cells (1 x 10^6 cells) were intraperitoneally inoculated into CDF1 mice. Intraperitoneal administration of Rhizoxin and Vincristine was made on 1, 6 and 9 days after the tumor inoculation. The result is shown in Table 4 in terms of a percentage of an increase in the average life span of the treated mice over that of the control mice."}, "[1]": {"assay": "Toxicity by intraperitoneal injection into mice", "conditions": "mouse, in vivo, ip, C3H/He mice, read-out: LDS 0 value", "method": "The toxicity of Rhizoxin was examined by the intraperitoneal injection of said compound into C3H/He mice, and as the LDS 0 value was above 5 mg/kg, it may be mentioned that the value is far above the dosage usually given in treatment."}, "plants other than rice": {"tested_on": "plants other than rice", "assay": "Growth of the root of plants other than rice", "conditions": "in vivo", "method": "as §1"}, "[2]": {"tested_on": "plant pathogenic bacteria", "assay": "Multiplication of plant pathogenic bacteria", "format": "cell-based", "conditions": "bacteria that are prokaryotes", "method": "as §1"}, "[3]": {"tested_on": "ascites tumor MH-134 cells due to the cancer of the liver", "assay": "Antitumor activity against ascites tumor MH-134 in mice (Test Example 1)", "format": "in vivo, C3H/He mice", "conditions": "for Average life span: once a day for 10 days from 24 hours after inoculation, control 17.2 days; for T/C (%): once a day for 10 days, ratio of average life span, treated/control x 100", "method": "1 x 10^6 of ascites tumor MH-134 cells due to the cancer of the liver were intraperitoneally inoculated into C3H/He mice (8 weeks old, each group 6 mice). Rhizoxin was dissolved with the addition of a small quantity of ethyl alcohol (not more than 1 volume percent on the basis of the total volume of the final solution), and further dissolved in a 0.85 X aqueous physiological sodium chloride solution containing 0.05 % of Tween 20. This solution was aseptically filtered, and 24 hours after the tumor inoculation, the solution was intraperitoneally administered to the mice continually for 10 days at a rate of 0.2 ml/mouse once a day. The antitumor activity of Rhizoxin was evaluated on the basis of the ratio (T/C) x 100 wherein T is the average life span of the Rhizoxin administered groups and C is the average life span of the control group."}, "Solubility in solvents": {"assay": "Solubility in solvents", "format": "physicochemical"}, "plant pathogenic fungi": {"tested_on": "plant pathogenic fungi", "assay": "Growth of plant pathogenic fungi", "format": "cell-based", "method": "as §1"}, "[4]": {"tested_on": "Vincristine resistant leukemia P-388 cells (P-388/VCR)", "assay": "Antitumor activity against Vincristine resistant leukemia P-388 in mice (Test Example 4)", "format": "in vivo, CDF1 mice", "conditions": "for ILS (%): P-388/VCR; for effectiveness against Vincristine resistant leukemia P-388: summary in words of Table 4", "text": "as §2"}, "[5]": {"conditions": "0.25 mg/Kg/day intraperitoneally"}, "[6]": {"conditions": "0.5 mg/Kg/day intraperitoneally"}, "[7]": {"conditions": "1.0 mg/Kg/day intraperitoneally"}, "[8]": {"conditions": "0.75 mg/Kg/day intraperitoneally on 1, 6 and 9 days after inoculation"}, "[9]": {"conditions": "1.0 mg/Kg/day intraperitoneally on 1, 6 and 9 days after inoculation"}, "[10]": {"conditions": "1.5 mg/Kg/day intraperitoneally on 1, 6 and 9 days after inoculation"}, "[11]": {"conditions": "15 mcg/Kg/day intraperitoneally"}, "[12]": {"conditions": "150 mcg/Kg/day intraperitoneally"}, "[13]": {"conditions": "2.0 mg/Kg/day intraperitoneally on 1, 6 and 9 days after inoculation"}}}
{"smiles": "CO[C@@H](/C(C)=C/C=C/C(C)=C/c1coc(C)n1)[C@@H](C)[C@@H]1C[C@H](O)[C@@]2(C)O[C@@H]2/C=C/[C@@H](C)[C@H]2C[C@H](CC(=O)O2)C[C@@H]2O[C@H]2C(=O)O1", "note": "[Rhizoxin]", "values": [{"measurement": "Change in body weight (g) (day 1-7)", "setting": "Leukemia L-1210 cells; [5]", "value": "+0.4 g"}, {"measurement": "ILS (%)", "setting": "Leukemia L-1210 cells; [5]", "value": 43, "unit": "%"}, {"measurement": "Change in body weight (g) (day 1-7)", "setting": "Leukemia L-1210 cells; [6]", "value": -0.7, "unit": "g"}, {"measurement": "ILS (%)", "setting": "Leukemia L-1210 cells; [6]", "value": 67, "unit": "%"}, {"measurement": "Change in body weight (g) (day 1-7)", "setting": "Leukemia L-1210 cells; [7]", "value": -2.9, "unit": "g"}, {"measurement": "ILS (%)", "setting": "Leukemia L-1210 cells; [7]", "value": 81, "unit": "%"}, {"measurement": "ILS (%)", "setting": "Leukemia L-1210 cells; 2.0 mg/Kg/day intraperitoneally", "value": "toxic"}, {"measurement": "minimal effective concentration", "setting": "rice seedling", "value": 0.01, "unit": "µg/mL"}, {"measurement": "Tumor growth inhibition (%)", "setting": "B-16 melanoma; [5]", "value": 38, "unit": "%"}, {"measurement": "Tumor growth inhibition (%)", "setting": "B-16 melanoma; [6]", "value": 68, "unit": "%"}, {"measurement": "Tumor growth inhibition (%)", "setting": "B-16 melanoma; [7]", "value": 62, "unit": "%"}, {"measurement": "ILS (%)", "setting": "leukemia P-388 cells; 0.5 mg/Kg/day intraperitoneally on 1, 6 and 9 days after inoculation", "value": 46.2, "unit": "%"}, {"measurement": "ILS (%)", "setting": "leukemia P-388 cells; [8]", "value": 65.6, "unit": "%"}, {"measurement": "ILS (%)", "setting": "leukemia P-388 cells; [9]", "value": 82.9, "unit": "%"}, {"measurement": "ILS (%)", "setting": "leukemia P-388 cells; [10]", "value": 123.7, "unit": "%"}, {"measurement": "ILS (%)", "setting": "leukemia P-388 cells; 3.0 mg/Kg/day intraperitoneally on 1, 6 and 9 days after inoculation", "value": "toxic"}, {"measurement": "effectiveness against leukemia P-388", "setting": "leukemia P-388 cells; summary in words of Table 4", "value": "effective"}, {"measurement": "LD50", "setting": "[1]", "value": "> 5", "unit": "mg/kg"}, {"measurement": "action on the growth of the root of the plants other than rice", "setting": "plants other than rice", "value": "check the growth of the root"}, {"measurement": "action on the multiplication of the plant pathogenic bacteria", "setting": "[2]", "value": "no recognizable action"}, {"measurement": "Average life span", "setting": "[3]; [11]", "value": 31.8, "unit": "days"}, {"measurement": "T/C (%)", "setting": "[3]; [11]", "value": 185, "unit": "%"}, {"measurement": "Average life span", "setting": "[3]; [12]", "value": 47.8, "unit": "days"}, {"measurement": "T/C (%)", "setting": "[3]; [12]", "value": 278, "unit": "%"}, {"measurement": "Solubility in solvents", "setting": "Solubility in solvents; benzene, chloroform, acetone, alcohol, etc.", "value": "Easily soluble"}, {"measurement": "Solubility in solvents", "setting": "Solubility in solvents; water, n-hexane", "value": "sparingly soluble"}, {"measurement": "action on the growth of plant pathogenic fungi", "setting": "plant pathogenic fungi", "value": "inhibits the growth"}, {"measurement": "ILS (%)", "setting": "[4]; [8]", "value": 28.2, "unit": "%"}, {"measurement": "ILS (%)", "setting": "[4]; [9]", "value": 35.9, "unit": "%"}, {"measurement": "ILS (%)", "setting": "[4]; [10]", "value": 57.3, "unit": "%"}, {"measurement": "ILS (%)", "setting": "[4]; [13]", "value": 61.2, "unit": "%"}, {"measurement": "ILS (%)", "setting": "[4]; 4.0 mg/Kg/day intraperitoneally on 1, 6 and 9 days after inoculation", "value": "toxic"}, {"measurement": "effectiveness against Vincristine resistant leukemia P-388", "setting": "[4]", "value": "clearly effective"}]}
{"smiles": "CC[C@]1(O)C[C@H]2CN(CCc3c([nH]c4ccccc34)[C@@](C(=O)OC)(c3cc4c(cc3OC)N(C=O)[C@H]3[C@@](O)(C(=O)OC)[C@H](OC(C)=O)[C@]5(CC)C=CCN6CC[C@]43[C@@H]65)C2)C1", "note": "[Vincristine, reference compound]", "values": [{"measurement": "ILS (%)", "setting": "[4]; [9]", "value": 6.8, "unit": "%"}, {"measurement": "ILS (%)", "setting": "[4]; [13]", "value": "toxic"}, {"measurement": "effectiveness against Vincristine resistant leukemia P-388", "setting": "[4]", "value": "not affected"}]}
